pIC50: −log10 of the molar value. Like-named read-outs stand apart in the source and are kept apart here.
Tests used:
PAK1 = PAK1 (Homo sapiens, UniProt Q13153); experiment: In vitro kinase assay, PAK1 (Caliper EZ Reader conversion); format: biochemical; design: purchased Carna Biosciences
Protocol: (§1) The effect of the compounds on the activity of SRC and PAK1 kinase were assessed. SRC and PAK1 kinase enzymes were obtained from Carna Biosciences.
(§2) Test compounds were dissolved in 100% DMSO to prepare a 20 mM stock. Compounds were stored in −20° C. and protected from light. A 100×solution of the compounds were prepared, from which 4-fold serial dilutions was made to achieve a total of 6 concentrations. Saracatinib was used as a positive control for the SRC assay, and FRAX597 was used as a positive control for the PAK1 assay. For the positive controls, a 3-fold serial dilution was made to achieve a total of 10 concentrations. 10 μL 1× Kinase buffer was used as the negative control.
(§3) First, 250 nL of the compounds at each dilution were transferred into wells of a 384-well plate. The PAK1 and SRC kinases were diluted to a 2.5×final concentration with 1×Kinase buffer. Then, 10 μL of enzyme mix was added to the 384-well plate, and the enzymes and compounds were pre-incubated at room temperature for 10 minutes. […] Then, 15 μL of substrate mix was added to a 384-well plate and reacted at room temperature for 30 min and 60 min. The reaction was stopped by adding 30 μL of the stop buffer, and the conversion rate was read using a Caliper EZ Reader.
(§4) Percent inhibition is calculated according to the following equation: […]
(§5) wherein “Conversion %_sample” is the conversion percentage value of the sample; “Conversion %_min” is the average conversion percentage value of the negative control; and “Conversion %_max” is the average conversion percentage value of the positive control.
(§6) The dose-response curve was fitted using GraphPad Prism software (version 5, […]), and the IC50 values for each compounds were calculated by log(inhibitor) vs. response using a variable slope program with the following formula:
(§7) Y=Bottom+(Top-Bottom)/(1+10^((Log IC50−X)*HillSlope))

SRC = target: T1, SRC (Homo sapiens, UniProt P12931); experiment: In vitro kinase assay, SRC (Caliper EZ Reader conversion); format: biochemical
T1 construct: purchased Carna Biosciences
T1 sequence (P12931 whole entry): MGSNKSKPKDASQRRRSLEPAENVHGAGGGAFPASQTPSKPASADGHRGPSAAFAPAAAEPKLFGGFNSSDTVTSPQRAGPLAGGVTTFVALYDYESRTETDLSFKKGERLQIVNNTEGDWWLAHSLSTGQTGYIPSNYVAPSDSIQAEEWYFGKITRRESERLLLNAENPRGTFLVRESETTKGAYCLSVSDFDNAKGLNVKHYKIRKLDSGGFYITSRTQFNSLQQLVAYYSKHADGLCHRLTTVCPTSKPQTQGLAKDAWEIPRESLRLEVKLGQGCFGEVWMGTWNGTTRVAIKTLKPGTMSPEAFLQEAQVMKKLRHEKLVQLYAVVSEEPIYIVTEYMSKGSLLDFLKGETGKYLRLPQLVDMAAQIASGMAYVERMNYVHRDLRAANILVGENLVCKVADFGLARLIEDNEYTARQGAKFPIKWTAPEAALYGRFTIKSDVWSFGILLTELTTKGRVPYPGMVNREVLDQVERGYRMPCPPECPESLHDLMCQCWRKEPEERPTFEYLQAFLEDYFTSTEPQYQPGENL
Protocol: as §1
as §2, with “A 100×solution of the compounds were prepared, from which 4-fold serial dilutions was made to achieve a total of 6 concentrations.” left out
as §3, with “The PAK1 and SRC kinases were diluted to a 2.5×final concentration with 1×Kinase buffer.” left out
as §4, §5, §6, §7

Sequence of PAK1 (Q13153 whole entry): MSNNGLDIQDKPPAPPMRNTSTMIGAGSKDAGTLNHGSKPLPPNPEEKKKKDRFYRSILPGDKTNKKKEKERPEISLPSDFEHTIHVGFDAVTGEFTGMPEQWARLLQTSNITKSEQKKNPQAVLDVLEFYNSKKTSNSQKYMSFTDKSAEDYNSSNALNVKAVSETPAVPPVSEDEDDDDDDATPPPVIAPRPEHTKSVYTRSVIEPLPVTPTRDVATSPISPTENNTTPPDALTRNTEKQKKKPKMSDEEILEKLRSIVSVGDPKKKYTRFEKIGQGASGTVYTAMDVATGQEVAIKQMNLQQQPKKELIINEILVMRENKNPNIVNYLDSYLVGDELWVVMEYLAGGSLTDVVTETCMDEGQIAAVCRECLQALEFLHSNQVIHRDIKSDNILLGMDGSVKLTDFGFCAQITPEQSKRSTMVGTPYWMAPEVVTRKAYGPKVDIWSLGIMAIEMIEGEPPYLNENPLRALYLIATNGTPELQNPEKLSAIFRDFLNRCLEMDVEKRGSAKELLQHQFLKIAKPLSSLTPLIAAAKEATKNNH

Row | pIC50 (PAK1) | pIC50 (SRC; read-out: SRC IC50) | pIC50 (SRC) | Structure (SMILES)
1 | 5.00 to 7.00 | > 7.00 | – | CCN1CCN(c2ccc(Nc3ncc4c(n3)N3CCN=C3C(c3ccc(Cl)cc3Cl)=C4)cc2F)CC1 [Compound 3, 6-(2,4-dichlorophenyl)-N-(4-(4-ethylpiperazin-1-yl)-3-fluorophenyl)-8,9-dihydroimidazo[1′,2′:1,6]pyrido[2,3-d]pyrimidin-2-amine]
2 | < 5.00 | < 5.00 | – | CCNc1ncc2c(n1)N1CCN=C1C(c1ccc(Cl)cc1Cl)=C2 [Compound 4, 6-(2,4-dichlorophenyl)-N-ethyl-8,9-dihydroimidazo[1′,2′:1,6]pyrido[2,3-d]pyrimidin-2-amine]
3 | < 5.00 | < 5.00 | – | Clc1ccc(C2=Cc3cnc(NC4CCOCC4)nc3N3CCN=C23)c(Cl)c1 [Compound 5, 6-(2,4-dichlorophenyl)-N-(tetrahydro-2H-pyran-4-yl)-8,9-dihydroimidazo[1′,2′:1,6]pyrido[2,3-d]pyrimidin-2-amine]
4 | < 5.00 | 5.00 to 7.00 | – | Fc1ccccc1Nc1ncc2c(n1)N1CCN=C1C(c1ccc(Cl)cc1Cl)=C2 [Compound 6, 6-(2,4-dichlorophenyl)-N-(2-fluorophenyl)-8,9-dihydroimidazo[1′,2′:1,6]pyrido[2,3-d]pyrimidin-2-amine]
5 | < 5.00 | – | > 7.00 | Fc1cc(N2CCNCC2)ccc1Nc1ncc2c(n1)N1CCN=C1C(c1ccc(Cl)cc1Cl)=C2 [Compound 7, 6-(2,4-dichlorophenyl)-N-(2-fluoro-4-(piperazin-1-yl)phenyl)-8,9-dihydroimidazo[1′,2′:1,6]pyrido[2,3-d]pyrimidin-2-amine]
6 | 5.00 to 7.00 | > 7.00 | – | Fc1cc(Nc2ncc3c(n2)N2CCN=C2C(c2ccccc2Cl)=C3)ccc1N1CCNCC1 [Compound 11, 6-(2-chlorophenyl)-N-(3-fluoro-4-(piperazin-1-yl)phenyl)-8,9-dihydroimidazo[1′,2′:1,6]pyrido[2,3-d]pyrimidin-2-amine]
7 | 5.00 to 7.00 | > 7.00 | – | Fc1cc(N2CCNCC2)ccc1Nc1ncc2c(n1)N1CCN=C1C(c1ccccc1Cl)=C2 [Compound 12, 6-(2-chlorophenyl)-N-(2-fluoro-4-(piperazin-1-yl)phenyl)-8,9-dihydroimidazo[1′,2′:1,6]pyrido[2,3-d]pyrimidin-2-amine]
8 | 5.00 to 7.00 | > 7.00 | – | OCc1cccc(Nc2ncc3c(n2)N2CCN=C2C(c2ccccc2Cl)=C3)c1 [Compound 13, (3-((6-(2-chlorophenyl)-8,9-dihydroimidazo[1′,2′:1,6]pyrido[2,3-d]pyrimidin-2-yl)amino)phenyl)methanol]
9 | < 5.00 | < 5.00 | – | Cn1nccc1Nc1ncc2c(n1)N1CCN=C1C(c1ccccc1Cl)=C2 [Compound 14, 6-(2-chlorophenyl)-N-(1-methyl-1H-pyrazol-5-yl)-8,9-dihydroimidazo[1′,2′:1,6]pyrido[2,3-d]pyrimidin-2-amine]
10 | < 5.00 | 5.00 to 7.00 | – | Clc1ccccc1C1=Cc2cnc(Nc3cccnc3)nc2N2CCN=C12 [Compound 15, 6-(2-chlorophenyl)-N-(pyridin-3-yl)-8,9-dihydroimidazo[1′,2′:1,6]pyrido[2,3-d]pyrimidin-2-amine]
11 | < 5.00 | 5.00 to 7.00 | – | Clc1ccccc1C1=Cc2cnc(Nc3ccncc3)nc2N2CCN=C12 [Compound 16, 6-(2-chlorophenyl)-N-(pyridin-4-yl)-8,9-dihydroimidazo[1′,2′:1,6]pyrido[2,3-d]pyrimidin-2-amine]
12 | < 5.00 | > 7.00 | – | COc1cccc(Nc2ncc3c(n2)N2CCN=C2C(c2ccccc2Cl)=C3)c1 [Compound 17, 6-(2-chlorophenyl)-N-(3-methoxyphenyl)-8,9-dihydroimidazo[1′,2′:1,6]pyrido[2,3-d]pyrimidin-2-amine]
13 | < 5.00 | > 7.00 | – | CSc1cccc(Nc2ncc3c(n2)N2CCN=C2C(c2ccccc2Cl)=C3)c1 [Compound 18, 6-(2-chlorophenyl)-N-(3-(methylthio)phenyl)-8,9-dihydroimidazo[1′,2′:1,6]pyrido[2,3-d]pyrimidin-2-amine]
14 | < 5.00 | > 7.00 | – | Fc1ccc(Nc2ncc3c(n2)N2CCN=C2C(c2ccccc2Cl)=C3)cc1 [Compound 19, 6-(2-chlorophenyl)-N-(4-fluorophenyl)-8,9-dihydroimidazo[1′,2′:1,6]pyrido[2,3-d]pyrimidin-2-amine]
15 | < 5.00 | > 7.00 | – | Cc1ccc(Nc2ncc3c(n2)N2CCN=C2C(c2ccccc2Cl)=C3)cc1F [Compound 20, 6-(2-chlorophenyl)-N-(3-fluoro-4-methylphenyl)-8,9-dihydroimidazo[1′,2′:1,6]pyrido[2,3-d]pyrimidin-2-amine]
16 | < 5.00 | < 5.00 | – | Clc1ccccc1C1=Cc2cnc(NC3COC3)nc2N2CCN=C12 [Compound 21, 6-(2-chlorophenyl)-N-(oxetan-3-yl)-8,9-dihydroimidazo[1′,2′:1,6]pyrido[2,3-d]pyrimidin-2-amine]
17 | 5.00 to 7.00 | > 7.00 | – | CN(C)CCOc1ccc(Nc2ncc3c(n2)N2CCN=C2C(c2ccccc2Cl)=C3)cc1 [Compound 22, 6-(2-chlorophenyl)-N-(4-(2-(dimethylamino)ethoxy)phenyl)-8,9-dihydroimidazo[1′,2′:1,6]pyrido[2,3-d]pyrimidin-2-amine]
18 | 5.00 to 7.00 | < 5.00 | – | CNc1ncc2c(n1)N1CCN=C1C(c1ccc(N3CCN(C)C3=O)cc1Cl)=C2 [Compound 23, 1-(3-chloro-4-(2-(methylamino)-8,9-dihydroimidazo[1′,2′:1,6]pyrido[2,3-d]pyrimidin-6-yl)phenyl)-3-methylimidazolidin-2-one]
19 | 5.00 to 7.00 | < 5.00 | – | CCNc1ncc2c(n1)N1CCN=C1C(c1ccc(-n3ccnc(C)c3=O)cc1Cl)=C2 [Compound 24, 1-(3-chloro-4-(2-(ethylamino)-8,9-dihydroimidazo[1′,2′:1,6]pyrido[2,3-d]pyrimidin-6-yl)phenyl)-3-methylpyrazin-2(1H)-one]
20 | 5.00 to 7.00 | < 5.00 | – | CNc1ncc2c(n1)N1CCN=C1C(c1ccc(-c3cncc(C)n3)cc1Cl)=C2 [Compound 25, 6-(2-chloro-4-(6-methylpyrazin-2-yl)phenyl)-N-methyl-8,9-dihydroimidazo[1′,2′:1,6]pyrido[2,3-d]pyrimidin-2-amine]
21 | 5.00 to 7.00 | > 7.00 | – | Fc1cc(Nc2ncc3c(n2)N2CCN=C2C(c2ccc(Cl)cc2)=C3)ccc1N1CCNCC1 [Compound 26, 6-(4-chlorophenyl)-N-(3-fluoro-4-(piperazin-1-yl)phenyl)-8,9-dihydroimidazo[1′,2′:1,6]pyrido[2,3-d]pyrimidin-2-amine]
22 | < 5.00 | > 7.00 | – | Fc1cc(Nc2ncc3c(n2)N2CCN=C2C(c2ccccc2)=C3)ccc1N1CCNCC1 [Compound 27, N-(3-fluoro-4-(piperazin-1-yl)phenyl)-6-phenyl-8,9-dihydroimidazo[1′,2′:1,6]pyrido[2,3-d]pyrimidin-2-amine]
23 | < 5.00 | 5.00 to 7.00 | – | Fc1cc(N2CCNCC2)ccc1Nc1ncc2c(n1)N1CCN=C1C(c1ccc(Cl)cc1)=C2 [Compound 28, 6-(4-chlorophenyl)-N-(2-fluoro-4-(piperazin-1-yl)phenyl)-8,9-dihydroimidazo[1′,2′:1,6]pyrido[2,3-d]pyrimidin-2-amine]
24 | < 5.00 | 5.00 to 7.00 | – | Fc1cc(N2CCNCC2)ccc1Nc1ncc2c(n1)N1CCN=C1C(c1ccccc1)=C2 [Compound 29, N-(2-fluoro-4-(piperazin-1-yl)phenyl)-6-phenyl-8,9-dihydroimidazo[1′,2′:1,6]pyrido[2,3-d]pyrimidin-2-amine]
25 | < 5.00 | 5.00 to 7.00 | – | COc1ccccc1C1=Cc2cnc(Nc3ccc(N4CCNCC4)cc3F)nc2N2CCN=C12 [Compound 31, N-(2-fluoro-4-(piperazin-1-yl)phenyl)-6-(2-methoxyphenyl)-8,9-dihydroimidazo[1′,2′:1,6]pyrido[2,3-d]pyrimidin-2-amine]
26 | 5.00 to 7.00 | 5.00 to 7.00 | – | COc1nc(N2CCNCC2)ccc1Nc1ncc2c(n1)N1CCN=C1C(c1ccc(Cl)cc1Cl)=C2 [Compound 35, 6-(2,4-dichlorophenyl)-N-(2-methoxy-6-(piperazin-1-yl)pyridin-3-yl)-8,9-dihydroimidazo[1′,2′:1,6]pyrido[2,3-d]pyrimidin-2-amine]

— patent US20230303570A1, “KINASE INHIBITORS AND USES THEREOF” (ABM Therapeutics Corporation, priority 2020, published 2023)
